Laboratory results published in patent US12673945B2, “3-((8-((1H-pyrazol-4-yl)amino)imidazo[1,2-a]pyridin-3-yl)ethinyl)-n-phenylbenzamide derivative, method for preparing same, and pharmaceutical composition containing same as active ingredient for prevention or treatment of cancer” (DAEGU-GYEONGBUK MEDICAL INNOVATION FOUNDATION, priority 2020, dated 2026).

Experiments:
Test in all cases: scanMAX Kinase panel (DiscoverX)
Format in all cases: binding
STK33 = target: T1, STK33 (Homo sapiens, UniProt Q9BYT3); conditions: read-out: % Cont @ 1 uM
T1 construct: purchased DiscoverX scanMAX Kinase panel
Description: (§1) Among the example compounds of the present invention, the enzyme (kinase) selectivity of the selected compounds of Examples 1 and 4 was measured by requesting DiscoverX. At this time, the experiment was performed using a panel for scanMAX™ Kinase. The concentration of the drug treated to the enzyme was 1 μM in DMSO, and the percentage control (% control) was determined by the method shown in Equation 1 below. (Example Compound−Positive Control)/(Negative Control−Positive control)×100 [Equation 1]

BRK = target: T2, BRK (Homo sapiens, UniProt Q13882); conditions: read-out: % Cont @ 1 uM
T2 construct: purchased DiscoverX scanMAX Kinase panel
Description: as §1

RET(V804M) = target: T3, RET(V804M) (Homo sapiens, UniProt P07949, V804M); conditions: read-out: % Cont @ 1 uM
T3 construct: purchased DiscoverX scanMAX Kinase panel
Description: as §1

IRAK4 = target: T4, IRAK4 (Homo sapiens, UniProt Q9NWZ3)
T4 construct: purchased DiscoverX scanMAX Kinase panel
Description: as §1

EGFR(S752-I759del) = target: T5, EGFR(S752-I759del) (Homo sapiens, UniProt P00533, DEL752-759)
T5 construct: purchased DiscoverX scanMAX Kinase panel
Description: as §1

[1] = target: T6, EGFR(L747-S752del, P753S) (Homo sapiens, UniProt P00533, DEL747-752/P753S)
T6 construct: purchased DiscoverX scanMAX Kinase panel
Description: as §1

p38-gamma = target: T7, p38-gamma (Homo sapiens, UniProt P53778); conditions: read-out: % Cont @ 1 uM
T7 construct: purchased DiscoverX scanMAX Kinase panel
Description: as §1

[2] = target: T8, ABL1(F317L)-nonphosphorylated (Homo sapiens, UniProt P00519, F317L); conditions: read-out: % Cont @ 1 uM
T8 construct: purchased DiscoverX
Description: as §1

EPHA4 = target: T9, EPHA4 (Homo sapiens, UniProt P54764); conditions: read-out: % Cont @ 1 uM
T9 construct: purchased DiscoverX scanMAX Kinase panel
Description: as §1

FLT1 = target: T10, FLT1 (Homo sapiens, UniProt P17948); conditions: read-out: % Cont @ 1 uM
T10 construct: purchased DiscoverX scanMAX Kinase panel
Description: as §1

FLT3(D835H) = target: T11, FLT3(D835H) (Homo sapiens, UniProt P36888, D835H); conditions: read-out: % Cont @ 1 uM
T11 construct: purchased DiscoverX scanMAX Kinase panel
Description: as §1

MAP3K2 = target: T12, MAP3K2 (Homo sapiens, UniProt Q9Y2U5); conditions: read-out: % Cont @ 1 uM
T12 construct: purchased DiscoverX scanMAX Kinase panel
Description: as §1

PDGFRA = target: T13, PDGFRA (Homo sapiens, UniProt P16234); conditions: read-out: % Cont @ 1 uM
T13 construct: purchased DiscoverX scanMAX Kinase panel
Description: as §1

SLK = target: T14, SLK (Homo sapiens, UniProt Q9H2G2); conditions: read-out: % Cont @ 1 uM
T14 construct: purchased DiscoverX scanMAX Kinase panel
Description: as §1

FGFR1 = target: T15, FGFR1 (Homo sapiens, UniProt P11362); conditions: read-out: % Cont @ 1 uM
T15 construct: purchased DiscoverX scanMAX Kinase panel
Description: as §1

RIPK2 = target: T16, RIPK2 (Homo sapiens, UniProt O43353); conditions: read-out: % Cont @ 1 uM
T16 construct: purchased DiscoverX scanMAX Kinase panel
Description: as §1

p38-beta = target: T17, p38-beta (Homo sapiens, UniProt Q15759); conditions: read-out: % Cont @ 1 uM
T17 construct: purchased DiscoverX scanMAX Kinase panel
Description: as §1

FLT3(D835V) = target: T18, FLT3(D835V) (Homo sapiens, UniProt P36888, D835V); conditions: read-out: % Cont @ 1 uM
T18 construct: purchased DiscoverX scanMAX Kinase panel
Description: as §1

EGFR(E746-A750del) = target: T19, EGFR(E746-A750del) (Homo sapiens, UniProt P00533, DEL746-750)
T19 construct: purchased DiscoverX scanMAX Kinase panel
Description: as §1

KIT(L576P) = target: T20, KIT(L576P) (Homo sapiens, UniProt P10721, L576P); conditions: read-out: % Cont @ 1 uM
T20 construct: purchased DiscoverX scanMAX Kinase panel
Description: as §1

GCN2(Kin.Dom.2, S808G) = target: T21, GCN2(Kin.Dom.2, S808G) (Homo sapiens, UniProt Q9P2K8, S808G); conditions: read-out: % Cont @ 1 uM
T21 construct: GCN2(Kin.Dom.2,S808G); purchased DiscoverX scanMAX Kinase panel
Description: as §1

TNNI3K = target: T22, TNNI3K (Homo sapiens, UniProt Q59H18); conditions: read-out: % Cont @ 1 uM
T22 construct: purchased DiscoverX scanMAX Kinase panel
Description: as §1

[3] = target: T23, ABL1(E255K)-phosphorylated (Homo sapiens, UniProt P00519, E255K); conditions: read-out: % Cont @ 1 uM
T23 construct: purchased DiscoverX
Description: as §1

MLK3 = target: T24, MLK3 (Homo sapiens, UniProt Q16584)
T24 construct: purchased DiscoverX scanMAX Kinase panel
Description: as §1

p38-delta = target: T25, p38-delta (Homo sapiens, UniProt O15264); conditions: read-out: % Cont @ 1 uM
T25 construct: purchased DiscoverX scanMAX Kinase panel
Description: as §1

KIT(V559D, T670I) = target: T26, KIT(V559D, T670I) (Homo sapiens, UniProt P10721, T670I/V559D); conditions: read-out: % Cont @ 1 uM
T26 construct: purchased DiscoverX scanMAX Kinase panel
Description: as §1

CDC2L1 = target: T27, CDC2L1 (Homo sapiens, UniProt P21127); conditions: read-out: % Cont @ 1 uM
T27 construct: purchased DiscoverX scanMAX Kinase panel
Description: as §1

GAK = target: T28, GAK (Homo sapiens, UniProt O14976); conditions: read-out: % Cont @ 1 uM
T28 construct: purchased DiscoverX scanMAX Kinase panel
Description: as §1

[4] = target: T29, ABL1(M351T)-phosphorylated (Homo sapiens, UniProt P00519, M351T); conditions: read-out: % Cont @ 1 uM
T29 construct: purchased DiscoverX
Description: as §1

DDR2 = target: T30, DDR2 (Homo sapiens, UniProt Q16832); conditions: read-out: % Cont @ 1 uM
T30 construct: purchased DiscoverX scanMAX Kinase panel
Description: as §1

MAP3K3 = target: T31, MAP3K3 (Homo sapiens, UniProt Q99759); conditions: read-out: % Cont @ 1 uM
T31 construct: purchased DiscoverX scanMAX Kinase panel
Description: as §1

MAP4K4 = target: T32, MAP4K4 (Homo sapiens, UniProt O95819); conditions: read-out: % Cont @ 1 uM
T32 construct: purchased DiscoverX scanMAX Kinase panel
Description: as §1

[5] = target: T33, ABL1(H396P)-nonphosphorylated (Homo sapiens, UniProt P00519, H396P); conditions: read-out: % Cont @ 1 uM
T33 construct: purchased DiscoverX
Description: as §1

BTK = target: T34, BTK (Homo sapiens, UniProt Q06187)
T34 construct: purchased DiscoverX scanMAX Kinase panel
Description: as §1

STK36 = target: T35, STK36 (Homo sapiens, UniProt Q9NRP7); conditions: read-out: % Cont @ 1 uM
T35 construct: purchased DiscoverX scanMAX Kinase panel
Description: as §1

[6] = target: T36, ABL1(Q252H)-phosphorylated (Homo sapiens, UniProt P00519, Q252H); conditions: read-out: % Cont @ 1 uM
T36 construct: purchased DiscoverX
Description: as §1

PDGFRB = target: T37, PDGFRB (Homo sapiens, UniProt P09619); conditions: read-out: % Cont @ 1 uM
T37 construct: purchased DiscoverX scanMAX Kinase panel
Description: as §1

T14 sequence (Q9H2G2 whole entry): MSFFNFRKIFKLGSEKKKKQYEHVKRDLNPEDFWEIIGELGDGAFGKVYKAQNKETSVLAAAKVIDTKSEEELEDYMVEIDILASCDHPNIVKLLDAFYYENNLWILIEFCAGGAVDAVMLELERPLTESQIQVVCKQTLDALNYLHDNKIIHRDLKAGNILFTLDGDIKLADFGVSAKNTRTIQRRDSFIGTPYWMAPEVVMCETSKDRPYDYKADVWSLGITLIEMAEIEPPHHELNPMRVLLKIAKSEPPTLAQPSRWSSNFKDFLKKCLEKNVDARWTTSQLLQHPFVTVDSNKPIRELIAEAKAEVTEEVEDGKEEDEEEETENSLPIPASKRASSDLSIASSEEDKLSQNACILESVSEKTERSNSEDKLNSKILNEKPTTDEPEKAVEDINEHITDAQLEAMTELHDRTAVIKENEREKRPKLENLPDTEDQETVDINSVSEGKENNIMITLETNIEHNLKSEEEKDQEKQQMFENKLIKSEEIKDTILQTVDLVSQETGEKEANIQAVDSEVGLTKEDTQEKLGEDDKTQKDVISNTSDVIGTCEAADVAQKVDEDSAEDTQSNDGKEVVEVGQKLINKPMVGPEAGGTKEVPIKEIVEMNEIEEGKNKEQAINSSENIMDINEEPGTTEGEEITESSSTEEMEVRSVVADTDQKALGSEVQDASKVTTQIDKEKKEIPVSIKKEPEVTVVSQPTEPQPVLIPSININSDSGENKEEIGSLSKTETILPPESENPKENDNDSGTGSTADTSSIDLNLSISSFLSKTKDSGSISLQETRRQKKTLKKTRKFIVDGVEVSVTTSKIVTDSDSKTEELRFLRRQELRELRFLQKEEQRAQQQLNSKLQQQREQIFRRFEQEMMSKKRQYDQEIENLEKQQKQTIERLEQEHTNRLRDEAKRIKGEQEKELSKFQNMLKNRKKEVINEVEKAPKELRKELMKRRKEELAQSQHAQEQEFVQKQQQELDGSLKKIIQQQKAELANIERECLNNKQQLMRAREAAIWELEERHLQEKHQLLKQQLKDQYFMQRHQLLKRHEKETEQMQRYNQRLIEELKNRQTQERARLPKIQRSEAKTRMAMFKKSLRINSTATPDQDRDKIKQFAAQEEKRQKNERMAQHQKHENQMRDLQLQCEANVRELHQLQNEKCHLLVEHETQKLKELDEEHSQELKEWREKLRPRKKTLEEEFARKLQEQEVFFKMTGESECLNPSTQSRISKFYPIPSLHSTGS
T25 sequence (O15264 whole entry): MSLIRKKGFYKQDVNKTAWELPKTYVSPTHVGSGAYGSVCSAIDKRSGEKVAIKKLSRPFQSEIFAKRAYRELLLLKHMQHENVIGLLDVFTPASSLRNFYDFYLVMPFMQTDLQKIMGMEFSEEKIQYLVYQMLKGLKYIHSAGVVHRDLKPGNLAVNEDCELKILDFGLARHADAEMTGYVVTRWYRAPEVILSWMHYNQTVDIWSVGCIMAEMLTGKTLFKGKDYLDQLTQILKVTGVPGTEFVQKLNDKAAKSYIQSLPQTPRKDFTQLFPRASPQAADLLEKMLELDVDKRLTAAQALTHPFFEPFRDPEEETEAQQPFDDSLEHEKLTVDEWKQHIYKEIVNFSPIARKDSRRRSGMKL
T30 sequence (Q16832 22-855): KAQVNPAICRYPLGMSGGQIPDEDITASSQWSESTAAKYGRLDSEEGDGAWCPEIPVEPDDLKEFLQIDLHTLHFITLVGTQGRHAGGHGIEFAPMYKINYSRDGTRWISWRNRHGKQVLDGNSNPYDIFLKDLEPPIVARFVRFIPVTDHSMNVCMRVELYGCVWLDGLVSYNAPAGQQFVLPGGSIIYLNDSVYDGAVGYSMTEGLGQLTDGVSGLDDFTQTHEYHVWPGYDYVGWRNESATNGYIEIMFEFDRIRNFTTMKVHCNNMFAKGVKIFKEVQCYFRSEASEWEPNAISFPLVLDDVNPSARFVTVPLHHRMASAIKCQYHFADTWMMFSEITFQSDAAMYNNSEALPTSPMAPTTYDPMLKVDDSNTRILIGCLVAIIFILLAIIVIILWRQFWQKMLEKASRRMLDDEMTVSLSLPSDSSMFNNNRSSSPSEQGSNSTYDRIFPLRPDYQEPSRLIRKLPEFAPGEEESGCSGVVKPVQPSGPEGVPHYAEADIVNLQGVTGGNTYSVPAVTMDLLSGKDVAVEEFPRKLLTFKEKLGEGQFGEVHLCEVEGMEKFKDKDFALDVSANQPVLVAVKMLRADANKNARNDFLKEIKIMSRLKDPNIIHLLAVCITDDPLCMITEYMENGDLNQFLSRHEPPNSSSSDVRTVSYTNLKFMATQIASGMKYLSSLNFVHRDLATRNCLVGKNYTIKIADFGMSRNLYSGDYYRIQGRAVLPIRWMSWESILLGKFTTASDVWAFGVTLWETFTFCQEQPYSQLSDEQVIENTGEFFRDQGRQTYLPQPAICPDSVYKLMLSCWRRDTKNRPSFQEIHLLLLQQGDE
T34 sequence (Q06187 whole entry): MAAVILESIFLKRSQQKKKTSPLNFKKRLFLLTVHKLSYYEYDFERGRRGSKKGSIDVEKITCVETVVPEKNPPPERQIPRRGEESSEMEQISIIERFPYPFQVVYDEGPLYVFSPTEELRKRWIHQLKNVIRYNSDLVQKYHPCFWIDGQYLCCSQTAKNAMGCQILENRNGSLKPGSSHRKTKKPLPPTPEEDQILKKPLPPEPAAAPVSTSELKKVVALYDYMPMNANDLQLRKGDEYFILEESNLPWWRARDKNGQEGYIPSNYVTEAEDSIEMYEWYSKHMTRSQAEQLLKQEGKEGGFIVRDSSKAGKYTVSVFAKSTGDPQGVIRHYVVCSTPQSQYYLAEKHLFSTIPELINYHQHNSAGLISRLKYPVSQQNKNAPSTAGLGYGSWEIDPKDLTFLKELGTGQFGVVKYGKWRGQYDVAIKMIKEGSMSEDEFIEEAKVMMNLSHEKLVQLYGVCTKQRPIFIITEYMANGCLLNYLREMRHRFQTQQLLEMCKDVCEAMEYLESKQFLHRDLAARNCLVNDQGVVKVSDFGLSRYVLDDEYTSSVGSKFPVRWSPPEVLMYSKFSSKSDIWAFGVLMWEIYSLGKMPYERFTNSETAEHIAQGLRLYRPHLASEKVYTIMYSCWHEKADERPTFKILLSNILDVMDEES
T32 sequence (O95819 whole entry): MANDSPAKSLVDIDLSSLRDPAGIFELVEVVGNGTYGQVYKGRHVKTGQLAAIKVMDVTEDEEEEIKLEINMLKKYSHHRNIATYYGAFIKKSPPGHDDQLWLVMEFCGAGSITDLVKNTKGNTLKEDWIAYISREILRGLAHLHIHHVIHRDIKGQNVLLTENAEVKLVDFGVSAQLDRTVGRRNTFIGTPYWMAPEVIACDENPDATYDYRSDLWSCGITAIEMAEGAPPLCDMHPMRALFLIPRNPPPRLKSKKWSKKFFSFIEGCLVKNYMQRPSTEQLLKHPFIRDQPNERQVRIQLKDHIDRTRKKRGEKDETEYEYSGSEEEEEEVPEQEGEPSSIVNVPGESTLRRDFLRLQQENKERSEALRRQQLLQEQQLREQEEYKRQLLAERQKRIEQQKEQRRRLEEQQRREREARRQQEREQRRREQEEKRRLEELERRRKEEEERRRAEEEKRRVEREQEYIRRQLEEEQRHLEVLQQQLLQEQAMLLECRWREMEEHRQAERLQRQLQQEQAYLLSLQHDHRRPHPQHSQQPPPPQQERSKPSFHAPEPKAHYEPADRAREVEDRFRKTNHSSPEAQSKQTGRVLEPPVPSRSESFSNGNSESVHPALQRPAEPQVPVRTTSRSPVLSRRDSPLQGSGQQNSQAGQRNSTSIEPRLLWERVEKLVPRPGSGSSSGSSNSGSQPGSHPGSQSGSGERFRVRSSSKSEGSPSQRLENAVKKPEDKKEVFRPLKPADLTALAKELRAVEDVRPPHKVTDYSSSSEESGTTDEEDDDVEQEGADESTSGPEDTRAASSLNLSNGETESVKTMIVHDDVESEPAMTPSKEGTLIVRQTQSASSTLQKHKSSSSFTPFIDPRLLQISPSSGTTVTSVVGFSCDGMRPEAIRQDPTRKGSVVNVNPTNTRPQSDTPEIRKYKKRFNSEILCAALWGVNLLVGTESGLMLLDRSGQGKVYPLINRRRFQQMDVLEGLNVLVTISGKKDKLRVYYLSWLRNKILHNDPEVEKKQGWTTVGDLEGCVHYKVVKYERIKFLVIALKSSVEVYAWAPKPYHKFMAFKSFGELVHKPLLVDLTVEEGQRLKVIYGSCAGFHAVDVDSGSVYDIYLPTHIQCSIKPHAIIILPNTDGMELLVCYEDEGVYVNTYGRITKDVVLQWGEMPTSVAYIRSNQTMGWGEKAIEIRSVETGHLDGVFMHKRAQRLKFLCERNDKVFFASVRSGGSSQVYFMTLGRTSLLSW
T2 sequence (Q13882 whole entry): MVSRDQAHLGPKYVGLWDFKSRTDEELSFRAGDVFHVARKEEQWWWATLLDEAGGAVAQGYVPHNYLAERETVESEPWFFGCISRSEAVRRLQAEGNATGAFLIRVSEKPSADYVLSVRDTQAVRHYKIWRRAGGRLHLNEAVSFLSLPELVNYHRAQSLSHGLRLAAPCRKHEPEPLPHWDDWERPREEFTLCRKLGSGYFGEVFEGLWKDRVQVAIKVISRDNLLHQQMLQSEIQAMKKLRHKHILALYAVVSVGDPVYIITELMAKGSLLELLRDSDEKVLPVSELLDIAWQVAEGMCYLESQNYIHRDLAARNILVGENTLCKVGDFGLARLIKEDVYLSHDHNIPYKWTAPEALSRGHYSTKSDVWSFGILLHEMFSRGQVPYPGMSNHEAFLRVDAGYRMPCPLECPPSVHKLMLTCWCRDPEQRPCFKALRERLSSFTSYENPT

| SMILES | remaining binding at 1 µM (STK33) | remaining binding at 1 µM (BRK) | remaining binding at 1 µM (RET(V804M)) | % Cont @ 1 uM (IRAK4) | % Cont @ 1 uM (EGFR(S752-I759del)) | % Cont @ 1 uM [1] | remaining binding at 1 µM (p38-gamma) | remaining binding at 1 µM [2] | remaining binding at 1 µM (EPHA4) | remaining binding at 1 µM (FLT1) | remaining binding at 1 µM (FLT3(D835H)) | remaining binding at 1 µM (MAP3K2) | percent of control binding at 1 µM (PDGFRA) | remaining binding at 1 µM (SLK) | remaining binding at 1 µM (FGFR1) | remaining binding at 1 µM (RIPK2) | remaining binding at 1 µM (p38-beta) | remaining binding at 1 µM (FLT3(D835V)) | % Cont @ 1 uM (EGFR(E746-A750del)) | remaining binding at 1 µM (KIT(L576P)) | further results |
| --- | --- | --- | --- | --- | --- | --- | --- | --- | --- | --- | --- | --- | --- | --- | --- | --- | --- | --- | --- | --- | --- |
| Cc1cn(-c2cc(NC(=O)c3cc(C#Cc4cnc5c(Nc6cnn(C)c6)cccn45)c(C)cc3F)cc(C(C)(C)C#N)c2)cn1 [Example 1, N-(3-(2-cyanopropane-2-yl)-5-(4-methyl-1H-imidazol-1-yl)phenyl)-2-fluoro-4-methyl-5-((8-((1-methyl-1H-pyrazol-4-yl)amino)imidazo[1,2-a]pyridin-3-yl)ethynyl)benzamide] | 12% | 13% | 0.35% | 34% | 5.7% | 1.3% | 17% | 2.7% | 26% | 1.4% | 0.45% | 34% | 2% | 1.2% | 1.2% | 3% | 0.85% | 0.25% | 0% | 1.4% | remaining binding at 1 µM (GCN2(Kin.Dom.2, S808G)): 17%; remaining binding at 1 µM (TNNI3K): 1.8%; remaining binding at 1 µM [3]: 0.9%; % Cont @ 1 uM (MLK3): 10%; percent of control binding at 1 µM (p38-delta): 29%; remaining binding at 1 µM (KIT(V559D, T670I)): 1.2%; remaining binding at 1 µM (CDC2L1): 27%; remaining binding at 1 µM (GAK): 25%; remaining binding at 1 µM [4]: 0.25%; remaining binding at 1 µM (DDR2): 2%; remaining binding at 1 µM (MAP3K3): 19%; remaining binding at 1 µM (MAP4K4): 0.75%; remaining binding at 1 µM [5]: 1.2%; % Cont @ 1 uM (BTK): 2.2%; remaining binding at 1 µM (STK36): 20%; remaining binding at 1 µM [6]: 1.3%; remaining binding at 1 µM (PDGFRB): 0% |
| Cc1cn(-c2cc(NC(=O)c3cc(C#Cc4cnc5c(Nc6cnn(C)c6)cccn45)c(C)cc3F)cc(C(F)(F)F)c2)cn1 [Example 4, 2-fluoro-4-methyl-N-(3-(4-methyl-1H-imidazol-1-yl)-5-(trifluoromethyl)phenyl)-5-((8-((1-methyl-1H-pyrazol-4-yl)amino)imidazo[1,2-a]pyridin-3-yl)ethynyl)benzamide] | 76% | 78% | 4.3% | 89% | 30% | 40% | 88% | 10% | 28% | 11% | 4.5% | 87% | 11% | 34% | 27% | 37% | 15% | 25% | 56% | 2.8% | remaining binding at 1 µM (GCN2(Kin.Dom.2, S808G)): 64%; remaining binding at 1 µM (TNNI3K): 41%; remaining binding at 1 µM [3]: 12%; % Cont @ 1 uM (MLK3): 57%; percent of control binding at 1 µM (p38-delta): 92%; remaining binding at 1 µM (KIT(V559D, T670I)): 12%; remaining binding at 1 µM (CDC2L1): 79%; remaining binding at 1 µM (GAK): 80%; remaining binding at 1 µM [4]: 10%; remaining binding at 1 µM (DDR2): 6.5%; remaining binding at 1 µM (MAP3K3): 82%; remaining binding at 1 µM (MAP4K4): 15%; remaining binding at 1 µM [5]: 2.9%; % Cont @ 1 uM (BTK): 38%; remaining binding at 1 µM (STK36): 45%; remaining binding at 1 µM [6]: 14%; remaining binding at 1 µM (PDGFRB): 0.05% |
